Assay results from paper PMC4207543 (Journal of Medicinal Chemistry, 2014).
pIC50: −log10 of the molar value. In brackets after ≈: the same amount, converted by molar mass. Where two headings read alike, the source gives them in different places.

Tests used:
[1] = target: T1, S. aureus RnpA (Staphylococcus aureus, UniProt P0A0H5); assay: S. aureus RnpA activity; assay type: biochemical; conditions: data not shown
T1 sequence (P0A0H5 1-117): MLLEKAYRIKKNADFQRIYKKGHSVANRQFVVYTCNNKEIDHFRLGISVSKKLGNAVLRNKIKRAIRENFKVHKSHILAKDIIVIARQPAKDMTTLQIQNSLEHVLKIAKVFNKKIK

[2] = target: S. aureus topoisomerase IV (Staphylococcus aureus, UniProt P0C1S7+P0C1U9); assay: S. aureus topoisomerase IV decatenation assay; assay type: biochemical
[3] = test system: S. aureus RNase J2; assay: S. aureus RNase J2 activity; assay type: biochemical; conditions: data not shown
[4] = test system: S. aureus strain UAMS-1; assay: microbe, parasite or virus in culture; assay type: cell-based, Staphylococcus aureus; conditions: for MIC: Staphylococcus aureus, UAMS1, 16 h, read-out: S. aureus MIC, strain UAMS-1, planktonic cells, MHB, 37 °C, 16 h; for fold reduction in activity compared to 4g: S. aureus MIC
[5] = target: S. aureus DNA gyrase (Staphylococcus aureus, UniProt P0A0K8+P20831); assay: S. aureus DNA gyrase supercoiling assay; assay type: biochemical; conditions: tested at 100 μM, gel (Figure 4B)
[6] = test system: methicillin-resistant (MRSA), vancomycin-intermediate (VISA), vancomycin-resistant (VRSA) S. aureus, fluoroquinolone resistant strains; assay type: cell-based, Staphylococcus aureus; conditions: toward MRSA, VRSA S. aureus and fluoroquinolone resistant strains
[7] = strain UAMS-1, compared to the hit 1a

S. aureus topoisomerase IV, sequence (P0C1U9 whole entry): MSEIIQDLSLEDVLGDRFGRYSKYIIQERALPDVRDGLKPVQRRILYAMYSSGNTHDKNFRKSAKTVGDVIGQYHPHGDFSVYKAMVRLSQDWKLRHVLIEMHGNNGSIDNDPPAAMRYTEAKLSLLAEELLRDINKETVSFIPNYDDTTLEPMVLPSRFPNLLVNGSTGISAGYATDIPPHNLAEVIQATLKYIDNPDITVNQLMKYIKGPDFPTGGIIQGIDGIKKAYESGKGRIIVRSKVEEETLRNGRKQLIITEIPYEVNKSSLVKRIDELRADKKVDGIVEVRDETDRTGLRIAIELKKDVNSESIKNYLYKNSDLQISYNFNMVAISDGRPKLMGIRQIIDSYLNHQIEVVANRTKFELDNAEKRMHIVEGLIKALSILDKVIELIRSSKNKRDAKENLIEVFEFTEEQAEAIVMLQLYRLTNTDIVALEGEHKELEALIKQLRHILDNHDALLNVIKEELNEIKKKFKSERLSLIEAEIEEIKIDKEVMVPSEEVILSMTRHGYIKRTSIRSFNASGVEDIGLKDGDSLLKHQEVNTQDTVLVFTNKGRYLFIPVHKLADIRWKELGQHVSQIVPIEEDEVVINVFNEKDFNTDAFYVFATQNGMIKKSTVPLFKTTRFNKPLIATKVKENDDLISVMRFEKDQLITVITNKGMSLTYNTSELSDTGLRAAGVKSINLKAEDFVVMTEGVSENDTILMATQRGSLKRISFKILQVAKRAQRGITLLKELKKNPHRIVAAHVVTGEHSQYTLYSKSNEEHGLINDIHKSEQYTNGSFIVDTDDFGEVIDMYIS
S. aureus topoisomerase IV, sequence (P0C1S7 whole entry): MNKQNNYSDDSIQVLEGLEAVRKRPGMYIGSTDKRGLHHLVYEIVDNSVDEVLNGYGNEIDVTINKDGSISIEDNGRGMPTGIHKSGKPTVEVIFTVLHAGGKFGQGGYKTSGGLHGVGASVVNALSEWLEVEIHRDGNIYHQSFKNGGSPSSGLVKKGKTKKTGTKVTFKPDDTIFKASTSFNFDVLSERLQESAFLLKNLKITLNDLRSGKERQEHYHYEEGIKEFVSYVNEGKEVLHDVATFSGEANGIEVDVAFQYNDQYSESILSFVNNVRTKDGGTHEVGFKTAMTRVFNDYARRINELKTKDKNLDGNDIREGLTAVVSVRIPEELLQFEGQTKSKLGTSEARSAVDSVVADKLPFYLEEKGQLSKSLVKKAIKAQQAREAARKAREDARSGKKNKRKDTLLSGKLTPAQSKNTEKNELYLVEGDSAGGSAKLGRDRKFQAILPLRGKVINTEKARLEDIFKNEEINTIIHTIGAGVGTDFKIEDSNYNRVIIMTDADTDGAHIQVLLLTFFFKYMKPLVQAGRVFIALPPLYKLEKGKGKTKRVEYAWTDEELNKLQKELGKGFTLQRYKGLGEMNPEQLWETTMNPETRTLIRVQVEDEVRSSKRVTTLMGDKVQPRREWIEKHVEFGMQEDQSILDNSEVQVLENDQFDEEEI
S. aureus DNA gyrase, sequence (P20831 whole entry): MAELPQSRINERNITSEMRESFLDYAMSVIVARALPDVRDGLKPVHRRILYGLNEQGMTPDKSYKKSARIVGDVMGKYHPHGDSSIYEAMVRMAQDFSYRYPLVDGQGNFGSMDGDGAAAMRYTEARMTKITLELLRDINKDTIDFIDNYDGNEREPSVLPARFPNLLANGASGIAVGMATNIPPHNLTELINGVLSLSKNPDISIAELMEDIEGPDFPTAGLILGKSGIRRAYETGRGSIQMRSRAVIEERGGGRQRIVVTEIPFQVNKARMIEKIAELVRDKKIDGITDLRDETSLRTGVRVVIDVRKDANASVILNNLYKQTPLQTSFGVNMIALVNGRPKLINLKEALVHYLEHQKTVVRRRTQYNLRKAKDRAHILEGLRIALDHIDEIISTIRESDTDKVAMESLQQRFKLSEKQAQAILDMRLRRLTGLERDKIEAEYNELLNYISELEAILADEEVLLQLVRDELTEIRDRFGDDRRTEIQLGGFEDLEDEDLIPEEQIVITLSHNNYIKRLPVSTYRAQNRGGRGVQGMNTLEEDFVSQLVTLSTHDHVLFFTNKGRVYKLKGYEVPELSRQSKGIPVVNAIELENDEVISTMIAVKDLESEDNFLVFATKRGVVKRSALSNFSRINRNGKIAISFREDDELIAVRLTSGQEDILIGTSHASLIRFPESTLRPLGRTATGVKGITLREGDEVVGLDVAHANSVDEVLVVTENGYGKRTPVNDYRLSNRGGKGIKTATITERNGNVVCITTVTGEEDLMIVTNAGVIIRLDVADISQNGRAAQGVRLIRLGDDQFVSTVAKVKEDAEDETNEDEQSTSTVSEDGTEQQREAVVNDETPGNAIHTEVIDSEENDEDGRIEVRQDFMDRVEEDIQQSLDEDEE
S. aureus DNA gyrase, sequence (P0A0K8 whole entry): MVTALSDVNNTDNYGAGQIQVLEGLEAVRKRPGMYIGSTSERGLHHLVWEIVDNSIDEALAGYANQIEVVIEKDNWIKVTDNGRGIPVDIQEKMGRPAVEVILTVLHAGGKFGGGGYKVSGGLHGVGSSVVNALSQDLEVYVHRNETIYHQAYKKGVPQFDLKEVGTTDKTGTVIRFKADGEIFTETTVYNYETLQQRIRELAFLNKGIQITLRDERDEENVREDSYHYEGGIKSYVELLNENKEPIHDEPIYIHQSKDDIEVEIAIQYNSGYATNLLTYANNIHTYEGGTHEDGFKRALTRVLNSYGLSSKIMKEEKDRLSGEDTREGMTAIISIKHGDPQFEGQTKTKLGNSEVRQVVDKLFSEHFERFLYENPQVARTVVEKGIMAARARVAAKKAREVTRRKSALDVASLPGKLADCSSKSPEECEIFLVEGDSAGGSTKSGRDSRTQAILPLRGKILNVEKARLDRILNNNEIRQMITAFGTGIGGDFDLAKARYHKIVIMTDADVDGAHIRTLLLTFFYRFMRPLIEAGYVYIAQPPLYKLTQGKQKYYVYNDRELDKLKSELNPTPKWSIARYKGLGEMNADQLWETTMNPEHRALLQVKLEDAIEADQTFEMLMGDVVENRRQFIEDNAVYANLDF

`CC(C)(C)c1ccc(C(O)CCCN2CCC(C(O)(c3ccccc3)c3ccccc3)CC2)cc1` (stereo not drawn) [1a, 1-(4-(tert-Butyl)phenyl)-4-(4-(hydroxydiphenylmethyl)piperidin-1-yl)butan-1-ol] was tested, and the “effect on activity of S. aureus RnpA” value [1] was “did not appear to affect the activity”, the “topoisomerase IV inhibitory activity (in words)” value ([2]; dose–response gel (Figure 5A)) was “moderate” and the “effect on activity of S. aureus RNase J2” value [3] was “did not appear to affect the activity”.

For `COc1ccc(C(O)CCCN2CCC(C(O)(c3ccccc3)c3ccccc3)CC2)cc1` (stereo not drawn) [1h, 1-(4-Methoxyphenyl)-4-(4-(hydroxydiphenylmethyl)piperidin-1-yl)butan-1-ol], the “S. aureus antimicrobial activity (in words)” value [4, 7] was “loss of antimicrobial activity”.

In the case of `COC(=O)c1ccc(C(O)CCCN2CCC(C(O)(c3ccccc3)c3ccccc3)CC2)cc1` (stereo not drawn) [1i, Methyl 4-(1-Hydroxy-4-(4-(hydroxydiphenylmethyl)piperidin-1-yl)butyl)benzoate], the pIC50 [2] was under 3.48, the MIC [4] was over 256 µg/mL and the “S. aureus antimicrobial activity (in words)” value [4, 7] was “loss of antimicrobial activity”.

For `O=C(O)c1ccc(C(O)CCCN2CCC(C(O)(c3ccccc3)c3ccccc3)CC2)cc1` (stereo not drawn) [1m, 4-(1-Hydroxy-4-(4-(hydroxydiphenylmethyl)piperidin-1-yl)butyl)benzoic Acid], the “S. aureus antimicrobial activity (in words)” value [4, 7] was “loss of antimicrobial activity”.

For `COC(=O)C(C)(C)c1ccc(C(O)CCCN2CCC(C(O)(c3ccccc3)c3ccccc3)CC2)cc1` (stereo not drawn) [1o, Methyl 2-(4-(1-Hydroxy-4-(4-(hydroxydiphenylmethyl)piperidin-1-yl)butyl)phenyl)-2-methylpropanoate], the “S. aureus antimicrobial activity (in words)” value [4, 7] was “loss of antimicrobial activity”.

For `CC(C)(C(=O)O)c1ccc(C(O)CCCN2CCC(C(O)(c3ccccc3)c3ccccc3)CC2)cc1` (stereo not drawn) [1p, 2-(4-(1-Hydroxy-4-(4-(hydroxydiphenylmethyl)piperidin-1-yl)butyl)phenyl)-2-methyl propanoic Acid, reference compound], the “S. aureus antimicrobial activity (in words)” value [4] was “loss of antimicrobial activity”.

In the case of `CC(C)(C)c1ccc(C(N)CCCN2CCC(C(O)(c3ccccc3)c3ccccc3)CC2)cc1` (stereo not drawn) [2g, (1-(4-Amino-4-(4-(tert-butyl)phenyl)butyl)piperidin-4-yl)diphenylmethanol], the MIC [4] was 16 to 32 µg/mL (≈ 34 to 68 µM) and the “S. aureus antimicrobial activity (in words)” value [4, 7] was “no change in activity”.

`CC(C)(C)c1ccc([C@@H](O)CCCN2CCC(C(O)(c3ccccc3)c3ccccc3)CC2)cc1` [2h, (S)-1-(4-(tert-Butyl)phenyl)-4-(4-(hydroxydiphenylmethyl)piperidin-1-yl)butan-1-ol] was tested, and the “S. aureus antimicrobial activity (in words)” value [4, 7] was “no change in activity”.

`CC(C)(C)c1ccc([C@H](O)CCCN2CCC(C(O)(c3ccccc3)c3ccccc3)CC2)cc1` [2i, (R)-1-(4-(tert-Butyl)phenyl)-4-(4-(hydroxydiphenylmethyl)piperidin-1-yl)butan-1-ol] was tested, and the “S. aureus antimicrobial activity (in words)” value [4, 7] was “no change in activity”.

Compound `OC(c1ccccc1)(c1ccccc1)C1CCN(CCc2ccc(F)cc2)CC1` [3c, (1-(4-Fluorophenethyl)piperidin-4-yl)diphenylmethanol] has a pIC50 [2] of under 3.48.

For `OC(c1ccccc1)(c1ccccc1)C1CCN(CCc2ccc(Cl)cc2)CC1` [3d, (1-(4-Chlorophenethyl)piperidin-4-yl)diphenylmethanol], the MIC [4] was 16 to 32 µg/mL (≈ 39.4 to 78.8 µM).

In the case of `OC(c1ccccc1)(c1ccccc1)C1CCN(CCc2ccc(Br)cc2)CC1` [3e, (1-(4-Bromophenethyl)piperidin-4-yl)diphenylmethanol], the MIC [4] was 16 to 32 µg/mL (≈ 35.5 to 71 µM).

For `COc1ccc(CCN2CCC(C(O)(c3ccccc3)c3ccccc3)CC2)cc1` [3g, (1-(4-Methoxyphenethyl)piperidin-4-yl)diphenylmethanol], the pIC50 [2] was under 3.48.

For `CC(C)(C)c1ccc(CCN2CCC(C(O)(c3ccccc3)c3ccccc3)CC2)cn1` [3h, (1-(2-(6-(tert-Butyl)pyridin-3-yl)ethyl)piperidin-4-yl)diphenylmethanol], the pIC50 [2] was under 3.48.

`CN(C)c1ccc(CCN2CCC(C(O)(c3ccccc3)c3ccccc3)CC2)cc1` [3k, (1-(4-(Dimethylamino)phenethyl)piperidin-4-yl)diphenylmethanol] gave a pIC50 [2] of under 3.48.

In the case of `OC(c1ccccc1)(c1ccccc1)C1CCN(CCc2ccc(-c3cccnc3)cc2)CC1` [3n, (1-(4-(Pyridin-3-yl)phenethyl)piperidin-4-yl)diphenylmethanol], the MIC [4] was 16 to 32 µg/mL (≈ 35.7 to 71.3 µM).

`CC1(c2ccc(CCN3CCC(C(O)(c4ccccc4)c4ccccc4)CC3)cc2)COC1` [3o, (1-(4-(3-Methyloxetan-3-yl)phenethyl)piperidin-4-yl)diphenylmethanol] gave a pIC50 [2] of under 3.48.

For `OC(c1ccccc1)(c1ccccc1)C1CCN(Cc2ccc(-c3ccsc3)cc2)CC1` [4ff], the “fold reduction in activity compared to 4g” value (from here on “fold reduction in activity”) [4] was 4– 8 fold.

In the case of `OC(c1ccccc1)(c1ccccc1)C1CCN(Cc2ccc(-c3ccccc3)cc2)CC1` [4g, (1-([1,1′-Biphenyl]-4-ylmethyl)piperidin-4-yl)diphenylmethanol], the “inhibition of S. aureus DNA gyrase supercoiling activity in comparison to terfenadine” value (“inhibition” for short) [5] was “improved inhibition”.

For `OC(c1ccccc1)(c1ccccc1)C1CCN(Cc2ccc(-c3cccs3)cc2)CC1` [4gg, (1-(4-(Thiophen-2-yl)benzyl)piperidin-4-yl)diphenylmethanol], the “fold reduction in activity” value [4] was 4– 8 fold.

For `OC(c1ccccc1)(c1ccccc1)C1CCN(Cc2ccc(-c3ccoc3)cc2)CC1` [4hh, (1-(4-(Furan-3-yl)benzyl)piperidin-4-yl)diphenylmethanol], the “fold reduction in activity” value [4] was 4– 8 fold.

With `OC(c1ccccc1)(c1ccccc1)C1CCN(Cc2ccc(-c3ccco3)cc2)CC1` [4ii, (1-(4-(Furan-2-yl)benzyl)piperidin-4-yl)diphenylmethanol] the “fold reduction in activity” value [4] was 4– 8 fold.

In the case of `CC(C)(C)c1ccc(C(O)CCCN2CCC(C(O)c3ccccc3)CC2)cc1` (stereo not drawn) [5a, 1-(4-(tert-Butyl)phenyl)-4-(4-(hydroxy(phenyl)methyl)piperidin-1-yl)butan-1-ol], the pIC50 [2] was under 3.48.

`CC(C)(C)c1ccc(C(O)CCCN2CCC(Cc3ccccc3)CC2)cc1` (stereo not drawn) [5b, 4-(4-Benzylpiperidin-1-yl)-1-(4-(tert-butyl)phenyl)butan-1-ol] gave a pIC50 [2] of under 3.48.

`CC(C)(C)c1ccc(C(O)CCCN2CCC(C(c3ccccc3)c3ccccc3)CC2)cc1` (stereo not drawn) [5e, 4-(4-Benzhydrylpiperidin-1-yl)-1-(4-(tert-butyl)phenyl)butan-1-ol] was tested, and the “S. aureus antimicrobial activity (in words)” value [4, 7] was “tolerated”.

For `O=C(O)c1cn(C2CC2)c2cc(N3CCNCC3)c(F)cc2c1=O` [ciprofloxacin, reference compound], the “inhibition” value [5] was “improved inhibition”.

For `OC(c1ccccc1)(c1ccccc1)C1CCN(CCCOc2ccc(-c3ccccc3)cc2)CC1` [compound 6, (1-(3-([1,1′-Biphenyl]-4-yloxy)propyl)piperidin-4-yl)diphenylmethanol], the “inhibition” value [5] was “improved inhibition” and the MIC [6] was “approximately 2 μg/mL”.
